Data taken from US9867836B2, “Lavage and/or infusion using CSA compounds for increasing fertility in a mammal” (priority 2014, dated 2018).

How the values were obtained:
[1] = tested on: Alpha hemolytic streptococci; experiment: Sensitivity panel on organism isolated from mare endometrium; format: cell-based; settings: isolate from endometrium of 16 year old Quarter Horse mare
Description: (§1) The microscopic findings from the lab were described as mild to moderate diffuse acute superficial […], Grade IIA endometrium. The lab also isolated Escherichia coli and Alpha-hemolytic streptococci. The sensitivity panel yielded the results in Table 1.

Escherichia coli = experiment: as above; format: cell-based; settings: isolate from endometrium of 16 year old Quarter Horse mare
Description: as §1

## NCC[C@H](O)C(=O)N[C@@H]1C[C@H](N)[C@@H](O[C@H]2O[C@H](CN)[C@@H](O)[C@H](O)[C@H]2O)[C@H](O)[C@H]1O[C@H]1O[C@H](CO)[C@@H](O)[C@H](N)[C@H]1O [Amikacin]
[1]
  Sensitivity Panel, Alpha hemolytic streptococci organism isolated: Resistant
Escherichia coli
  Sensitivity Panel, Escherichia coli Organism Isolated: Sensitive

## CCN1CCN(c2cc3c(cc2F)c(=O)c(C(=O)O)cn3C2CC2)CC1 [Enrofloxacin]
[1]
  Sensitivity Panel, Alpha hemolytic streptococci organism isolated: Sensitive
Escherichia coli
  Sensitivity Panel, Escherichia coli Organism Isolated: Sensitive

## Trimmicosin
Escherichia coli
  Sensitivity Panel, Escherichia coli Organism Isolated: Intermediate

## CS(=O)(=O)c1ccc([C@@H](O)[C@@H](CF)NC(=O)C(Cl)Cl)cc1 [Florfenicol]
Escherichia coli
  Sensitivity Panel, Escherichia coli Organism Isolated: Sensitive

## CC[C@H]1OC(=O)[C@H](C)[C@@H](O[C@H]2C[C@@](C)(OC)[C@@H](O)[C@H](C)O2)[C@H](C)[C@@H](O[C@@H]2O[C@H](C)C[C@H](N(C)C)[C@H]2O)[C@](C)(O)C[C@@H](C)C(=O)[C@H](C)[C@@H](O)[C@]1(C)O [Erythromycin]
[1]
  Sensitivity Panel, Alpha hemolytic streptococci organism isolated: Sensitive

## Gentamicin
[1]
  Sensitivity Panel, Alpha hemolytic streptococci organism isolated: Resistant
Escherichia coli
  Sensitivity Panel, Escherichia coli Organism Isolated: Sensitive

## CC1(C)S[C@@H]2[C@H](NC(=O)[C@H](C(=O)O)c3ccsc3)C(=O)N2[C@H]1C(=O)O [Ticarcillin]
[1]
  Sensitivity Panel, Alpha hemolytic streptococci organism isolated: Sensitive
Escherichia coli
  Sensitivity Panel, Escherichia coli Organism Isolated: Sensitive

## TMP/Sulfa
[1]
  Sensitivity Panel, Alpha hemolytic streptococci organism isolated: Sensitive
Escherichia coli
  Sensitivity Panel, Escherichia coli Organism Isolated: Resistant

## Cc1nnc(SCC2=C(C(=O)O)N3C(=O)[C@@H](NC(=O)Cn4cnnn4)[C@H]3SC2)s1 [Cefazolin]
[1]
  Sensitivity Panel, Alpha hemolytic streptococci organism isolated: Sensitive
Escherichia coli
  Sensitivity Panel, Escherichia coli Organism Isolated: Sensitive

## CC1(C)S[C@@H]2[C@H](NC(=O)[C@H](N)c3ccccc3)C(=O)N2[C@H]1C(=O)O [Ampicillin]
[1]
  Sensitivity Panel, Alpha hemolytic streptococci organism isolated: Sensitive
Escherichia coli
  Sensitivity Panel, Escherichia coli Organism Isolated: Intermediate

## CO/N=C(\C(=O)N[C@@H]1C(=O)N2C(C(=O)O)=C(CSC(=O)c3ccco3)CS[C@H]12)c1csc(N)n1 [Ceftiofur]
[1]
  Sensitivity Panel, Alpha hemolytic streptococci organism isolated: Sensitive
Escherichia coli
  Sensitivity Panel, Escherichia coli Organism Isolated: Sensitive

## CO[C@H]1/C=C/O[C@@]2(C)Oc3c(C)c(O)c4c(O)c(c(/C=N/N5CCN(C)CC5)c(O)c4c3C2=O)NC(=O)/C(C)=C\C=C\[C@H](C)[C@H](O)[C@@H](C)[C@@H](O)[C@@H](C)[C@H](OC(C)=O)[C@@H]1C [Rifampin]
[1]
  Sensitivity Panel, Alpha hemolytic streptococci organism isolated: Sensitive
